Experimental data taken from patent publication US20240270786A1, “STEROID COMPOUNDS” (Epirium Bio Inc., priority 2022, published 2024).
Several values for one entry are separate records, joined by “and”; a condition that tells them apart may be missing. Identical values can stand only once.

Tests used:
[1] = tested on: PGC-1α expression in C2C12 cells; experiment: In vitro PGC-1α expression in C2C12 cells (cell ELISA); type: cell-based; conditions: 5000 cells/well, OD @ 650 nm, DMSO control = 100
Protocol: Culture conditions: DMEM containing 25 mM glucose with 10% FBS supplementation; grown at 37° C. and 5% CO2.
Drugs: (+)-Epicatechin, AICAR (direct activator of AMPK).
Assay Conditions: C2C12 cells were cultured in DMEM supplemented in 10% FBS upto 80% confluence. The cells were further trypsinized and seeded into a 96 well plate at a density of 5000 cells/well (well volume—100 μL) (Day 0). Following attachment, the cells were allowed to reach 80-90% confluence in the plate (typically 48 hours post seeding) and further differentiated using DMEM+2% Horse Serum (200 μL/well). The media was changed every day or at least every alternate day for 5 days to allow myoblasts to differentiate into myotubes. On day 7 (post seeding), the cells were treated with standards and test compounds for PGC-1 α assay.
PGC-1α assay: For the detection of PGC-1a, the cells were incubated with 0.5 μg/ml primary antibody (Merck, WH0010891M3) in PBS-T containing 5% BSA at 4° C. overnight. The cells were then washed three times with PBS-T for 5 minutes and incubated with 1:1000 dilution secondary antibody (Anti-rabbit IgG, HRP-linked Antibody, Cell Signaling) in PBS-T with 1% BSA for 1 hour at RT. Cells were washed three times with PBS-T for 5 minutes The cells were incubated with 100 μl TMB substrate solution for 30 minutes and the reaction was stopped with 100 μl of 2N H2SO4. […] (For plate optical density calculations, a background correction was taken at 540 nm). The final PGC-1a activation % is average of activation of 6 replicates.

PGC-1α = experiment: In vivo PGC-1α expression in liver of LPS-treated mice (ELISA); design: species or system C57BL/6 mice; conditions: for PGC-1α levels: C57BL/6 mice; for PGC-1α level (%): Control = 100
Protocol: C57BL/6 mice were procured from Vivo Bio Tech Ltd. Male mice were used for the study within an age range of 7 to 8 weeks. Body weight for these mice ranged from 20 g to 25 g. Animals were housed in a group of 6 in individually ventilated cages with temperature of 22±3° C., a relative humidity of 50 to 60%. The bottom of the cages was layered with sterilized corn cob. Animals were provided with gamma irradiated feed and autoclaved drinking water ad-libitum. The IVCs were maintained at an environment controlled (Centrally Air-Conditioned) room at a temperature of 22±3° C., a relative humidity of 50 to 60%, light intensity of 250-300 lux and a 12 hour light-dark cycle and noise intensity of <85 db.
Method of Preparation: LPS was dosed at 3 mg/kg in a dose volume of 10 ml/kg. For this, 0.3 mg/ml of LPS solution (Micronized suspension) was prepared. Butter paper was placed on analytical balance, tarred and LPS was placed on butter paper and its weight was noted down. LPS was transferred to 15 ml falcon tube. Then required amount of normal saline was added to it to make it 0.3 mg/ml. The solution was vortexed properly for 5 minutes and placed on ice. LPS solution was vortexed every time before aspiration and injection.
LPS was dosed at 3 mg/kg. Each test compound was dosed at 10 mg/kg, 2 hour and 15 min post LPS administration.
0.5% CMC was used as a vehicle with a dose volume of 10 ml/kg. An IP route was used for LPS, and a PO route was used for each test compound. Animals were sacrified 24 hours post LPS dosing, and plasma were collected. PGC-1α level was measured in liver samples, and other tissues were stored for future analysis. PGC-1α level was checked using ELISA kit—CUSABIO Mouse PPARGC1A ELISA kit.
Protocol: One day before start of the experiment C57BL/6 Mice (Male, 6-7-week-old) were randomized on the basis of their body weight and were divided into groups. All the cages were assigned the respective group name. Animals inside each cage were marked on the base of the tails with permanent marker to distinguish each animal. Mice were fasted overnight. Next day morning animals were dosed with test item. Group 1 (Control) and Group 2 (LPS) Animals were dosed with vehicle (0.5% CMC). Test items were prepared in 0.5% CMC by trituration in mortar and pestle and addition of CMC drop by drop. 2 hour post test item/vehicle dosing animals were administered with LPS through IP route at 3 mg/kg of body weight. Group 1 (Control) animals were administered with saline. 0.25 hour post LPS administration, animals were again dosed with test item/vehicle. Post dosing, animals were returned to their respective cages and kept until termination of the study. No feed was offered to any group. Animals were provided with water. 24 hour post LPS administration, blood was collected from each animal under influence of mild isoflurane anesthesia through retro-orbital technique. Animals were sacrificed by CO2 asphyxiation technique. Post-termination, animals were dissected and vital organs, liver, brain, skeleton muscle were collected in Eppendorf tubes and flash frozen in liquid nitrogen. Serum was collected from whole blood by centrifuging it at 4° C. at 10,000 RPM and for 10 minutes. (Blood was left for 2 hour for coagulation before centrifugation) After completion of the experiment, all collected samples were stored at −80° C. until analysis.
Assay Methods/Protocol: The mortar was chilled with liquid nitrogen and then the small tissue pieces were grinded in the presence of liquid nitrogen to a fine powder. Immediately after grinding, transferred small amount of tissue powder to a 1.5 ml micro centrifuge tube containing 1.0 ml lysis buffer (RIPA buffer+Protease inhibitor). The samples were then incubated on ice for 2 hours. The samples were vortexed every 15 minutes. The samples were then centrifuged at 13000×g for 15 minutes at 2-8° C. After centrifugation the supernatant was removed carefully and pellet was discarded. […]

[2] = Pharmacokinetics: quantitative determination of compounds in mice plasma; type: in vivo, C57BL/6 Mice; conditions: 10 mg/kg PO single dose, vehicle 10% NMP
Protocol: C57BL/6 Mice, Age 7-9 weeks, body weight range 20-25 g were used. The mice were fasted overnight. Mice were dosed once a day for a single day at 10 mg/kg, 10 mg/kg. 6 time-points were used for whole blood. 10% NMP was used as a vehicle. 9 animals were used per treatment, with three groups of three animals each. Group 1 had time points at 15 and 60 minutes, Group 2 had time points at 30 and 120 minutes, and Group 3 had time points at 90 and 240 minutes. An Oral (PO) route was used. Plasma and brain samples were collected (brain sample collected at terminal time point). Plasma was collected through the centrifugation of whole blood at 10,000 rpm for 10 minutes at 4° C. Samples were stored at −80° C. until processing.
1.00 mg/mL in 100% MeOH PP vials (prepared at RT yellow light) at 2-8° C. were used as stock solution. 12.22-50000 ng/mL using 80% MeOH PP vials (prepared at RT yellow light) at 2-8° C. were used as working solution. 0.98-4000 ng/mL (prepared at RT yellow light) was used for the curve range. For Compounds 26, 40, and 50, 1.00 mg/mL of Compound 53 in 100% methanol Ria vials (Prepared at RT yellow light) was used as IS stock solution, and 80 ng/mL of Compound 53 in 80% methanol (Prepared at RT yellow light) was used as IS working solution. For Compound 36, 1.00 mg/mL of Compound 47 in 100% methanol Ria vials (Prepared at RT yellow light) was used as IS stock solution, and 80 ng/mL of Compound 47 in 80% methanol (Prepared at RT yellow light) was used as IS working solution. A linear, 1/×2 fit type was used. The injection volume was 10 μL for Compounds 26 and 36, and 5 μL for Compounds 40 and 50. Mobile Phase A was 0.1% Formic Acid in water at room temperature. Mobile Phase B was 100% methanol at room temperature. R0 wash solution was 80% methanol at room temperature. R3 wash solution was IPA/MeOH/ACN/water (1:1:1:1) at room temperature. The column was Agilent Eclipse 50*2.1 mm 1.8 μm and the instrument was Shimadzu LC-40 UPLC and AB Sciez 6500+ with LCMS002.
Using a pipette, 25 μL of each sample were aliquoted (calibration curve sample, QC samples and blank matrix) to labeled 1.5 ml eppendorf. Using a pipette, 5.0 μL of IS of conc. 80 ng (Cocktail IS) was aliquoted to each standards and samples except Blank. All tubes were mixed on a multi-tube vortex for approximately 30 seconds. 50 μL of 10 mM Sodium bi-carbonate were added. 1 ml of tert-butyl methyl ether (TBME) was added. All tubes were mixed on a multi-tube vortex for approximately 5 minutes then centrifuged for 10 min at 5,000 rpm for Compounds 26 and 36 and at 10,000 rpm for Compounds 40 and 50, 4° C. The sample was kept in methanol containing dry ice for few seconds to freeze the Aqueous layer (flash freeze method). The upper organic layer was poured from the frozen tubes into the labeled 12×75-mm rial vials and evaporated to dryness under nitrogen using Liquid Evaporator (30° C., ˜15 psi, ˜10 mins). 200 μl of reconstitution solution (0.1% Formic Acid: MeOH (20:80 v/v) were added into each tube. Samples were Vortexed for 30 seconds then transferred to amber glass injection vials for injection.
After test item administration, blood samples were collected from individual animals in previously labeled Heparinised blood collection tubes. Blood samples were collected from retro orbital plexus. The time points for collection of blood samples from all the animals are; 0.25, 0.5, 1, 2 and 4 hr. The collected samples were subjected to centrifugation @ 10,000 rpm for 10 minutes at 40° C. for separation of plasma. Thereafter, plasma samples were collected in previously labeled plasma tubes. These were stored at −80° C. until analysis.

[3] = LPS 3 mg/Kg IP, test compound 10 mg/kg PO BID, liver, 24 hours post LPS
[4] = LPS 0.25 + 0.5 + 1 mg/kg, test compound 10 mg/kg

SMILES	% Activity (PGC-1α expression) ([1]; 1 mM)	PGC-1α levels (PGC-1α; [3])	PGC-1α level (%) (PGC-1α; [3])	PGC-1α level (PGC-1α; [4])	PGC-1α level (%) (PGC-1α; [4])	T½ [2]	AUC(0-inf) ([2]; C57BL/6, mouse)	AUC(0-t) ([2]; C57BL/6, mouse)	Cmax ([2]; C57BL/6, mouse)	Tmax ([2]; C57BL/6, mouse)	% Activity (PGC-1α expression) ([1]; 0.001 nM)
NC(=O)c1ncn([C@@H]2O[C@H](CO)[C@@H](O)[C@H]2O)c1N [AICAR, 5-aminoimidazole-4-carboxamide-1-β-D-ribofuranoside]	148% and 140% and 130% and 128%	–	–	–	–	–	–	–	–	–	–
CN(C)C(=O)[C@H]1CCC2C3CCC4=CC(=O)N(C)CC[C@]4(C)C3[C@@H](O)C[C@@]21C (stereo partly drawn) [Compound 50, (5aR,6S,7aS)-6-hydroxy-N,N,3,5a,7a-pentamethyl-2-oxo-2,3,4,5,5a,5b,6,7,7a,8,9,10,10a,10b,11,12-hexadecahydrocyclopenta[5,6]naphtho[1,2-d]azepine-8-carboxamide]	–	38684 pg/mL and 24206 pg/mL	110% and 80%	2632 pg/mL	40%	25.4 min	2540 ng·h/mL	2450 ng·h/mL	2900 ng/mL	15 min	–
Oc1cc(O)c2c(c1)O[C@H](c1ccc(O)c(O)c1)[C@H](O)C2 [Epicatechin, (+)-Epicatechin, reference compound]	–	33330 pg/mL and 31729 pg/mL and 21967 pg/mL	63% and 90% and 72%	3247 pg/mL	49%	–	–	–	–	–	129% and 123% and 120% and 122% and 125%
